Experiment [1] has as its target WDR5 protein (22-334aa) with MLL1 polypeptide (3672-3773aa) (Homo sapiens, UniProt P61964). Briefly: WDR5-MLL PPI inhibitory activity test (HTRF). Format: binding. The following applies: His-tagged WDR5 and biotin-tagged MLL1 polypeptide. The source says:
Test Example 1: WDR5-MLL PPI Inhibitory Activity Test
Effect of the compounds on WDR5 (WD Repeat Domain 5) and MLL1 (mixed-lineage leukemia 1) peptides at molecular level.
The effect of the compound on the interaction of WDR5 protein (22-334aa) with MLL1 polypeptide (3672-3773aa) was detected by HTRF (Homogeneous Time-Resolved Fluorescence) technology. When the N-terminal His-tagged WDR5 recognized by the Anti-6His-Eu cryptate donor interacts with the biotin-tagged MLL1 polypeptide recognized by the streptavidin-APC receptor, the donor and acceptor are pulled close enough to produce fluorescence resonance energy transfer (FRET). […] Therefore, the decrease in FRET signal can reflect the compound's inhibition on the interaction of WDR5 with MLL1 polypeptide.
The compound to be tested was diluted 3-fold with DMSO. […] Then the compound was diluted with reaction buffer (25 mM HEPES pH=7.5, 100 mM NaCl, 0.05% Tween 20) to control the final concentration of DMSO at 0.5%. In a 384-well plate, 1 μL of compound and 3 μL of 42 nM WDR5 protein were added, centrifuged at 1000 rpm for 1 min, incubated at room temperature for 60 min, followed by adding 3 μL of 333 nM MLL1 polypeptide with incubation at room temperature for 10 min, and followed by adding 3 μL of a mixed liquid of Anti-6His-Eu cryptate and streptavidin-APC with centrifugation at 1000 rpm for 1 mi and incubation at room temperature protected from light for 60 min, using a multifunction microplate reader (EnVision®2105) to read the signal. The following controls were set up per plate: control group (1 μL with 5% DMSO reaction buffer, 3 μL of 42 nM WDR5, 3 μL of MLL1 polypeptide, 3 μL of Anti-6His-Eu cryptate and streptavidin-APC). Blank group (1 μL reaction buffer with 5% DMSO, 3 μL reaction buffer, 3 μL MLL1 polypeptide, 3 μL Anti-6His-Eu cryptate and streptavidin-APC). The test data was calculated according to the signal ratio of two beams of fluorescence at different wavelengths: (665 nm signal/620 nm signal)*10000. […] The IC50 value was calculated using XLfit software.
In general terms: In TR-FRET formats the signal depends on donor and acceptor labels being close together.

The test system of experiment [2] is MV4-11 cells. Description: MV4-11 cell proliferation inhibition experiment (CellTiter-Glo). The conditions noted are these: Homo sapiens, 144 h, 6 days, read-out: cell proliferation inhibitory activity. In kind it is cell-based. The procedure:
Test Example 2: MV4-11 Cell (ATCC: CRL-9591) Proliferation Inhibition Experiment
ATP in living cells was quantitatively detected by CellTiter-Glo (Promega-G7573) Luminescence Cell Viability Assay Kit to determine the effect of the compounds to be tested on cell proliferation. • Step 1: MV4-11 cells were seeded in 96-well plates (Greiner-655098) at a density of 1,500 cells per well with a volume of 140 μL per well; Cell culture medium components included RPM11640 (Gibco-A10491-01)+10% FBS (Gibco-10099-141C)+1% Penicillin-Streptomycin (5,000 U/mL, Gibco-15070-063). • Step 2: On the day of cell seeding, the cells were treated with the compound to be tested. The compound to be tested was diluted with a 3-fold gradient, and a total of 9 concentration gradients were set. DMSO (Sigma, D2650) with 0.5% final concentration or a DMSO solution containing the compound to be tested was added per well with 2 or 3 replicate wells at each concentration point. The plates were incubated at 37° C. in a 5% CO2 incubator (Thermo Scientific Steri-Cycle 371) for 6 days. • Step 3: The cell viability in the control and treatment groups was detected with CellTiter-Glo Luminescent Cell Viability Assay Kit. 50 μL of CellTiter-Glo was added per well, mixed well, and incubated for 15 min at room temperature protected from light. According to the kit instructions, the chemiluminescence signal was read using a multifunctional microplate reader (EnVision, PerkinElmer).
The inhibition percentage (%) of the compound at each concentration point was calculated by the following formula:
Inhibition Percentage (%)=(1−signal value of the group treated with the compound/signal value of the group treated with DMSO)*100.
The value of cell proliferation semi-inhibitory concentration IC50 was calculated using GraphPad Prism software, and the results are shown in Table 2.
In general terms: ATP-based viability assays read luminescence as a measure of living cells.

The structures appear in SMILES notation.

Turning to `CCOc1cc(CN2CC3(CCC3)c3c(CN4CCN(C)CC4)cc(Cn4ccnc4NC)cc3C2=O)nn1C` [Compound 87, 2′-((5-ethoxy-1-methyl-1H-pyrazole-3-yl)methyl)-7′-((2-(methylamino)-1H-imidazol-1-yl)methyl)-5′-((4-methylpiperazin-1-yl)methyl)-2′,3′-dihydro-1′H-spiro[cyclobutan-1,4′-isoquinoline]-1′-one], the IC50 in experiment [1] was below 20 nM; in experiment [2] it was below 50 nM.
Consider `CCOc1cc([C@H](C)N2CC3(CCC3)c3c(CN4CCN(C)CC4)cc(Cn4ccnc4NC)cc3C2=O)ncc1F` [Compound 83, (S)-2′-(1-(4-ethoxy-5-fluoropyridine-2-yl)ethyl)-7′-((2-(methylamino)-1H-imidazol-1-yl)methyl)-5′-((4-methylpiperazin-1-yl)methyl)-2′,3′-dihydro-1′H-spiro[cyclobutan-1,4′-isoquinoline]-1′-one], for which the IC50 in experiment [1] was below 20 nM; in experiment [2] it was below 50 nM.
On to `CNc1nccn1Cc1cc(CN2CC(F)(F)C2)c2c(c1)C(=O)N([C@@H](C)c1cc(OC)c(C#N)cn1)CC21CC1` [Compound 61], for which the IC50 in experiment [1] was below 20 nM; in experiment [2], 50 to 200 nM.
In the same order, the values of `CCOc1cc([C@H](C)N2CC3(CCC3)c3c(CN4CCN(S(C)(=O)=O)CC4)cc(Cn4ccnc4NC)cc3C2=O)ncc1C#N` [Compound 80, (S)-4-ethoxy-6-(1-(7′-((2-(methylamino)-1H-imidazol-1-yl)methyl)-5′-((4-(methylsulfonyl)piperazin-1-yl)methyl)-1′-one-1′H-spiro[cyclobutan-1,4′-isoquinoline]-2′(3′H)-yl)ethyl)nicotinonitrile] are below 20 nM and below 50 nM.
In the case of `CCOc1cc([C@H](C)N2CC3(CC3)c3c(CN(CC)CC)cc(Cn4ccnc4NC)cc3C2=O)ncc1F` [Compound 10, (S)-5′-(diethylamino)methyl)-2′-(1-(4-ethoxy-5-fluoropyridine-2-ylethyl)-7′-((2-(methylamino)-1H-imidazol-1-yl)methyl)-2′,3′-dihydro-1′H-spiro[cyclopropan-1,4′-isoquinoline]-1′-one], the IC50 in experiment [1] is below 20 nM; in experiment [2], 50 to 200 nM.
For `CNc1nccn1Cc1cc(CN(C)C)c2c(c1)C(=O)N([C@@H](C)c1cc(OC3CC3)c(F)cn1)CC21CC1` [Compound 14] the same measures were below 20 nM and 50 to 200 nM.
For `CCOc1cc([C@H](C)N2CC3(CC3)c3c(CN4CCOCC4)cc(Cn4ccnc4NC)cc3C2=O)ncc1C#N` [Compound 59] the same measures were below 20 nM and below 50 nM.
In the same order, the values of `CCOc1cc([C@H](C)N2CC3(CCC3)c3c(CN4CCN(C)CC4)cc(Cn4ccnc4NC)cc3C2=O)ncc1C#N` [Compound 73, (S)-4-ethoxy-6-(1-(7′-((2-(methylamino)-1H-imidazol-1-yl)methyl)-5′-((4-methylpiperazin-1-yl)methyl)-1′-one-1′H-spiro[cyclobutan-1,4′-isoquinoline]-2′(3′H)-yl)ethyl)nicotinonitrile] are below 20 nM and below 50 nM.
`CCOc1cc(CN2CC3(CCC3)c3c(CN4CC(F)(F)C4)cc(Cn4ccnc4NC)cc3C2=O)ncc1C#N` [Compound 82, 6-((5′-((3,3-difluoroazetidinyl-1-yl)methyl)-7′-((2-(methylamino)-1H-imidazol-1-yl)methyl)-1′-one-1′H-spiro[cyclobutan-1,4′-isoquinoline]-2′(3′H)-yl)methyl)-4-ethoxynicotinonitrile]: the values for the IC50 in experiment [1] and in experiment [2] were below 20 nM and below 50 nM, respectively.
For `CCOc1cc(C(C)N2CC3(CC3)c3c(CN(C)CC(F)(F)F)cc(Cn4ccnc4NC)cc3C2=O)ncc1F` (stereo not drawn) [Compound 41, 2′-(1-(4-ethoxy-5-fluoropyridine-2-yl)ethyl)-5′-((methyl(2,2,2-trifluoroethyl)amino)methyl)-7′-((2-(methylamino)-1H-imidazol-1-yl)methyl)-2′,3′-dihydro-1′H-spiro[cyclopropan-1,4′-isoquinoline]-1′-one] the same measures were 20 to 100 nM and 50 to 200 nM.
For `CCOc1cc(C(C)N2CC3(CC3(F)F)c3c(CN(C)C)cc(Cn4ccnc4NC)cc3C2=O)ncc1F` (single isomer, unassigned) [Compound 88] the same measures were below 20 nM and below 50 nM.
Regarding `CCOc1cc([C@H](C)N2CC3(CC3)c3c(CN4CCN(CC(F)(F)F)CC4)cc(Cn4ccnc4NC)cc3C2=O)ncc1C#N` [Compound 63, (S)-4-ethoxy-6-(1-(7′-((2-(methylamino)-1H-imidazol-1-yl)methyl)-1′-one-5′-((4-(2,2,2-trifluoroethyl)piperazin-1-yl)methyl)-1′H-spiro[cyclopropan-1,4′-isoquinoline]-2′(3′H)-yl)ethyl)nicotinonitrile], the IC50 in experiment [1] is below 20 nM; in experiment [2] it was 50 to 200 nM.
In the same order, the values of `CCOc1cc([C@H](C)N2CC3(CC3)c3c(CN4C5CC4CN(C)C5)cc(Cn4ccnc4NC)cc3C2=O)ncc1F` [Compound 70, 2′-((S)-1-(4-ethoxy-5-fluoropyridine-2-yl)ethyl)-5′-((3-methyl-3,6-diazadicyclo[3.1.1]heptan-6-yl)methyl)-7′-((2-(methylamino)-1H-imidazol-1-yl)methyl)-2′,3′-dihydro-1′H-spiro[cyclopropan-1,4′-isoquinoline]-1′-one] are below 20 nM and below 50 nM.
In the same order, the values of `CCOc1cc([C@H](C)N2CC3(CC3)c3c(CN4CCOCC4)cc(Cn4ccnc4NC)cc3C2=O)ncc1F` [Compound 8] are below 20 nM and 50 to 200 nM.
In the same order, the values of `CCOc1cc([C@H](C)N2CC3(CC3)c3c(CN4CCN(C5CC5)CC4)cc(Cn4ccnc4NC)cc3C2=O)ncc1F` [Compound 64, (S)-5′-((4-cyclopropylpiperazin-1-yl)methyl)-2′-(1-(4-ethoxy-5-fluoropyridine-2-yl)ethyl)-7′-((2-(methylamino)-1H-imidazol-1-yl)methyl)-2′,3′-dihydro-1′H-spiro[cyclopropan-1,4′-isoquinoline]-1′-one] are below 20 nM and 50 to 200 nM.
In the case of `CCOc1cc([C@H](C)N2CC3(CCC3)c3c(CN(C)C)cc(Cn4ccnc4NC)cc3C2=O)ncc1F` [Compound 18, (S)-5′-((dimethylamino)methyl)-2′-(1-(4-ethoxy-5-fluoropyridine-2-yl)ethyl)-7′-((2-(methylamino)-1H-imidazol-1-yl)methyl)-2′,3′-dihydro-1′H-spiro[cyclobutan-1,4′-isoquinoline]-1′-one], the IC50 in experiment [1] is below 20 nM; in experiment [2], 50 to 200 nM.
With `CNc1nccn1Cc1cc(CN(C)C)c2c(c1)C(=O)N([C@@H](C)c1cnc(F)c(OC)c1)CC21CC1` [Compound 4], the IC50 in experiment [1] is below 20 nM; in experiment [2], below 50 nM.
In the same order, the values of `CNc1nccn1Cc1cc(CN(C)C)c2c(c1)C(=O)N([C@@H](C)c1cc(OC)c(C#N)cn1)CC21CC1` [Compound 2] are below 20 nM and 50 to 200 nM.

The values above are taken from patent publication US20240101535A1, “DIHYDROISOQUINOLINONE DERIVATIVE AND APPLICATION THEREOF” (ETERN BIOPHARMA (SHANGHAI) CO., LTD., priority 2020, published 2024).
